pIC50: −log10 of the molar value.

For one experiment, the target named is T1, NanoLuc (Oplophorus gracilirostris, UniProt Q9GV45, A31E/A60N/A81I/F95D/I117V/K70R/L54V/L99Q/M102K/N193R/P142E/Q151K/Q38R/Q45L/V71I/Y165I). In words: Inhibitor IC50 determination.
T1 sequence (Q9GV45 28-196 with tags or gaps with the stated changes limits assumed): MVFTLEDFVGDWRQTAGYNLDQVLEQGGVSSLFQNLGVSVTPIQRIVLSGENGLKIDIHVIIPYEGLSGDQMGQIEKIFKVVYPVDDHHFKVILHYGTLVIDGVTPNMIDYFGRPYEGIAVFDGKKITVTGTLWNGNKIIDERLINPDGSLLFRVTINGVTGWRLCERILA
Details: not given
It is filed as biochemical. The method, then: The following example provides the IC50 values for the compounds disclosed herein. NANOLUC® enzyme was diluted to 0.4 ng/ml in CO2 independent media+10% FBS to make the detection reagent. A 3× dilution series of each inhibitor was then made in the detection reagent. A “no inhibitor” control was also made for each sample. 50 ul of each inhibitor dilution was mixed with 50 ul of NanoGlo® buffer containing 20 μM furimazine (final furimazine concentration is 10 μM, which is at Km.), and luminescence was measured. Each sample was normalized to the “no inhibitor” control. The IC50 values were then determined using GraphPad Prism (log[inhibitor] vs. normalized response).
As to `CCc1cccc(N(CC)C(=O)Cn2c(C(=O)N[C@H]3CC[C@H](C(=O)NCCCCCCCCNC(=O)c4ccc5c(c4)C(=O)OC54c5ccc(O)cc5Oc5cc(O)ccc54)CC3)cc3ccccc32)c1` [JRW-0882, N-(trans-4-((8-(3′,6′-dihydroxy-3-oxo-3H-spiro[isobenzofuran-1,9′-xanthene]-5-carboxamido)octyl)carbamoyl)cyclohexyl)-1-(2-(ethyl(3-ethylphenyl)amino)-2-oxoethyl)-1H-indole-2-carboxamide], the pIC50 (as a rule, the negative decadic logarithm of the IC50, by convention in mol/L) is 8.96. Same read-out and setting: the result for `CCN(C(=O)Cn1c(C(=O)N[C@H]2CC[C@H](C(=O)NCCCCCC(=O)NCCOCCOCCC(=O)ON3C(=O)CCC3=O)CC2)cc2sccc21)c1cccc(C)c1` [JRW-0520, 2,5-dioxopyrrolidin-1-yl 1-(trans-4-(4-(2-(ethyl(m-tolyl)amino)-2-oxoethyl)-4H-thieno[3,2-b]pyrrole-5-carboxamido)cyclohexyl)-1,8-dioxo-12,15-dioxa-2,9-diazaoctadecan-18-oate] reads 7.03; that for `CCN(C(=O)Cn1c(C(=O)N[C@H]2CC[C@H](C(=O)NCCCCCCCC(=O)Oc3cc(F)cc(F)c3)CC2)cc2sccc21)c1cccc(C)c1` [JRW-0833, 3,5-difluorophenyl 8-(trans-4-(4-(2-(ethyl(m-tolyl)amino)-2-oxoethyl)-4H-thieno[3,2-b]pyrrole-5-carboxamido)cyclohexane-1-carboxamido)octanoate], 7.70; that for `CCN(C(=O)Cn1c(C(=O)N[C@H]2CC[C@H](C(=O)NCCCCCCNC(=O)CCc3ccc4n3[B-](F)(F)[N+]3=C(C)C=C(C)C3=C4)CC2)cc2sccc21)c1cccc(C)c1` [JRW-0829, N-(trans-4-((6-(3-(5,5-difluoro-7,9-dimethyl-5H-514,614-dipyrrolo[1,2-c:2′,1′-f][1,3,2]diazaborinin-3-yl)propanamido)hexyl)carbamoyl)cyclohexyl)-4-(2-(ethyl(m-tolyl)amino)-2-oxoethyl)-4H-thieno[3,2-b]pyrrole-5-carboxamide], 6.32. The same measure, in the same setting: the result for `CCN(C(=O)Cn1c(C(=O)N[C@H]2CC[C@H](C(=O)NCCCCCNC(=O)CBr)CC2)cc2sccc21)c1cccc(C)c1` [JRW-0870, N-(trans-4-((5-(2-bromoacetamido)pentyl)carbamoyl)cyclohexyl)-4-(2-(ethyl(m-tolyl)amino)-2-oxoethyl)-4H-thieno[3,2-b]pyrrole-5-carboxamide] reads 7.38.

In the case of `CCN(C(=O)Cn1c(C(=O)N[C@H]2CC[C@H](C(=O)NCCCCCCNC(=O)c3ccc4c(c3)C(=O)OC43c4ccc(O)cc4Oc4cc(O)ccc43)CC2)cc2sccc21)c1cccc(C)c1` [JRW-0200, N-(trans-4-((6-(3′,6′-dihydroxy-3-oxo-3H-spiro[isobenzofuran-1,9′-xanthene]-5-carboxamido)hexyl)carbamoyl)cyclohexyl)-4-(2-(ethyl(m-tolyl)amino)-2-oxoethyl)-4H-thieno[3,2-b]pyrrole-5-carboxamide], the pIC50 was 7.31. The same measure, in the same setting: the figure for `CCN(C(=O)Cn1c(C(=O)N[C@H]2CC[C@H](C(=O)NCCCCCCNC(=O)c3ccc4c(c3)C3(OC4=O)c4ccc(N(C)C)cc4Oc4cc(N(C)C)ccc43)CC2)cc2sccc21)c1cccc(C)c1` [JRW-0824] is 6.74; for `CCN(C(=O)Cn1c(C(=O)N[C@H]2CC[C@H](C(=O)NCCCCCCCC(=O)Oc3ccc(F)cc3)CC2)cc2sccc21)c1cccc(C)c1` [JRW-0831] it is 6.49. In turn, `CCN(C(=O)Cn1c(C(=O)N[C@H]2CC[C@H](C(=O)NCCCCCCCC(=O)ON3C(=O)CC(S(=O)(=O)O)C3=O)CC2)cc2sccc21)c1cccc(C)c1` (stereo partly drawn) [JRW-0830, sodium 1-((8-(trans-4-(4-(2-(ethyl(m-tolyl)amino)-2-oxoethyl)-4H-thieno[3,2-b]pyrrole-5-carboxamido)cyclohexane-1-carboxamido)octanoyl)oxy)-2,5-dioxopyrrolidine-3-sulfonate] had a pIC50 of 8.38.

Regarding `CCc1cccc(N(CC)C(=O)Cn2c(C(=O)N[C@H]3CC[C@H](C(=O)NCCCCCCNC(=O)c4ccc5c(c4)C(=O)OC54c5ccc(O)cc5Oc5cc(O)ccc54)CC3)cc3ccccc32)c1` [JRW-0818, N-(trans-4-((6-(3′,6′-dihydroxy-3-oxo-3H-spiro[isobenzofuran-1,9′-xanthene]-5-carboxamido)hexyl)carbamoyl)cyclohexyl)-1-(2-(ethyl(3-ethylphenyl)amino)-2-oxoethyl)-1H-indole-2-carboxamide], the pIC50 was 8.92.

As to `CCc1cccc(N(CC)C(=O)Cn2c(C(=O)N[C@H]3CC[C@H](C(=O)NCCCCCCBr)CC3)cc3ccccc32)c1` [JRW-0626, N-(trans-4-((6-bromohexyl)carbamoyl)cyclohexyl)-1-(2-(ethyl(3-ethylphenyl)amino)-2-oxoethyl)-1H-indole-2-carboxamide], the pIC50 is 9.70.

`CCN(C(=O)Cn1c(C(=O)N[C@H]2CC[C@H](C(=O)NCCCCCCCC(=O)Oc3c(F)c(F)cc(F)c3F)CC2)cc2sccc21)c1cccc(C)c1` [JRW-0847] showed a negative-log IC50 (pIC50) of 9.52.

`CCN(C(=O)Cn1c(C(=O)N[C@H]2CC[C@H](C(=O)NCCCCCC(=O)NCCOCCOCCOCCC(=O)ON3C(=O)CCC3=O)CC2)cc2sccc21)c1cccc(C)c1` [JRW-0525] had a pIC50 of 7.08. Same read-out and setting: the result for `CCN(C(=O)Cn1c(C(=O)N[C@H]2CC[C@H](C(=O)NCCCCCCNC(=O)CCl)CC2)cc2sccc21)c1cccc(C)c1` [JRW-0846, N-(trans-4-((6-(2-chloroacetamido)hexyl)carbamoyl)cyclohexyl)-4-(2-(ethyl(m-tolyl)amino)-2-oxoethyl)-4H-thieno[3,2-b]pyrrole-5-carboxamide] reads 7.80. In the case of `CCN(C(=O)Cn1c(C(=O)N[C@H]2CC[C@H](C(=O)OC)CC2)cc2sccc21)c1cccc(CBr)c1` [JRW-0466, methyl trans-4-(4-(2-((3-(bromomethyl)phenyl)(ethyl)amino)-2-oxoethyl)-4H-thieno[3,2-b]pyrrole-5-carboxamido)cyclohexane-1-carboxylate], the pIC50 was 8.68.

The same experiment, now with this note: 0.4 ng/ml NANOLUC in CO2 independent media+10% FBS; final furimazine 10 μM; no pre-incubation noted; read-out: IC50.
“N1-(2-(5,5-difluoro-1,3-dimethyl-5H-5λ4,6λ4-dipyrrolo[1,2-c:2′,1′-f][1,3,2]diazaborinin-10-yl)ethyl)-N4-(1-(trans-4-(1-(2-(ethyl(3-ethylphenyl)amino)-2-oxoethyl)-1H-indole-2-carboxamido)cyclohexyl)-1,12-dioxo-15,18-dioxa-2,11-diazaicosan-20-yl)succinamide [JRW-1083]”: the pIC50 was 8.74. As to `CCN(C(=O)Cn1c(C(=O)N[C@H]2CC[C@H](C(=O)NCCCCCCCCNC(=O)c3ccc4c(c3)C(=O)OC43c4ccc(N)cc4Oc4cc(N)ccc43)CC2)cc2sccc21)c1cccc(C)c1` [JRW-0887], the pIC50 was 8.20. On to “N-(trans-4-((8-(4′,5′-dichloro-3′,6′-dihydroxy-2′,7′-dimethoxy-3-oxo-3H-spiro[isobenzofuran-1,9′-xanthene]-5,6-carboxamido)octyl)carbamoyl)cyclohexyl)-1-(2-(ethyl(3-ethylphenyl)amino)-2-oxoethyl)-1H-indole-2-carboxamide [JRW-0964]”, for which the pIC50 was 7.92. Same read-out and setting: the result for “N1-(2-(5,5-difluoro-1,3-dimethyl-5H-5λ4,6λ4-dipyrrolo[1,2-c:2′,1′-f][1,3,2]diazaborinin-10-yl)ethyl)-N4-(1-(trans-4-(1-(2-(ethyl(3-ethylphenyl)amino)-2-oxoethyl)-1H-indole-2-carboxamido)cyclohexyl)-1,10-dioxo-13,16-dioxa-2,9-diazaoctadecan-18-yl)succinamide [JRW-1082]” reads 8.48; that for `CCN(C(=O)Cn1c(C(=O)NC2CCC(C(=O)NCCCCCCCCNC(=O)CCC3=[N+]4C(=Cc5c(C)cc(C)n5[B-]4(F)F)C=C3)CC2)cc2sccc21)c1cccc(C)c1` (stereo not drawn) [JRW-0889, N-(trans-4-((8-(3-(5,5-difluoro-7,9-dimethyl-5H-5λ4,6λ4-dipyrrolo[1,2-c:2′,1′-f][1,3,2]diazaborinin-3-yl)propanamido)octyl)carbamoyl)cyclohexyl)-4-(2-(ethyl(m-tolyl)amino)-2-oxoethyl)-4H-thieno[3,2-b]pyrrole-5-carboxamide], 6.55. Same read-out and setting: the figure for “N-(trans-4-((8-(3′,6′-diamino-3-oxo-3H-spiro[isobenzofuran-1,9′-xanthene]-5,6-carboxamido)octyl)carbamoyl)cyclohexyl)-1-(2-(ethyl(3-ethylphenyl)amino)-2-oxoethyl)-1H-indole-2-carboxamide [JRW-0886]” is 8.43. Same read-out and setting: the figure for “N-(trans-4-((8-(6-((Z)-2-((E)-3-(1,1-dimethyl-1,4,5,6-tetrahydro-3λ4-pyrrolo[3,2,1-ij]quinolin-2-yl)allylidene)-1-methyl-1,2,5,6-tetrahydro-4H-pyrrolo[3,2,1-ij]quinolin-1-yl)hexanamido)octyl)carbamoyl)cyclohexyl)-1-(2-(ethyl(3-ethylphenyl)amino)-2-oxoethyl)-1H-indole-2-carboxamide [JRW-0958]” is 7.80.

The next experiment concerns the target T1, NanoLuc. In words: Suicide inhibition: displacement of inhibitor by furimazine upon dilution (FIG. 7). The settings on record: 10 μM Nluc + 10 μM inhibitor 30 minutes at RT, diluted to 10 pM, furimazine 10 uM.
Description: Following dilution, 50 ul of the dilution was combined with 50 ul of NanoGlo® assay buffer.
Following dilution, 50 ul of the dilution was combined with 50 ul of NanoGlo® assay buffer. Final furimazine concentration was 10 uM.
For `CCc1cccc(N(CC)C(=O)Cn2c(C(=O)N[C@H]3CC[C@H](C(=O)NCCCCCCNC(=O)c4ccc5c(c4)C(=O)OC54c5ccc(OC(C)=O)cc5Oc5cc(OC(C)=O)ccc54)CC3)cc3ccccc32)c1` [JRW-0650, 5-((6-(trans-4-(1-(2-(ethyl(3-ethylphenyl)amino)-2-oxoethyl)-1H-indole-2-carboxamido)cyclohexane-1-carboxamido)hexyl)carbamoyl)-3-oxo-3H-spiro[isobenzofuran-1,9′-xanthene]-3′,6′-diyl diacetate], the “displacement of inhibitor by furimazine upon dilution” value is recorded as “slower”.

These data come from patent US10815247B2, “Functionalized NANOLUC inhibitors” (PROMEGA CORPORATION, priority 2016, dated 2020).
